Results: US20130059907A1, “WOGONIN-CONTAINING PHARMACEUTICAL COMPOSITION FOR INHIBITING CANCER STEM CELLS GROWTH AND APPLICATION THEREOF” (National Taiwan Normal University, priority 2011, published 2013)

Assays:
A549 cells [1] = assay: Side population analysis (Hoechst33342, with or without reserpine); type: cell-based; conditions: A549, dose of IC50, 48 hours, FIGS. 5A and 5B
Method: A549 cells were seeded in the number of about 3×10^5 in 10 cm dish to give adequate number of cells for analysis. The cells were treated with the extract of S. baicalensis and the wogonin solution in the dose of IC50 for 48 hours. Then, the treated cells were harvested by typsinization and centrifugation. The harvested cells were re-suspended in the number of 1×10^6 cells/ml in culture medium containing 2% FBS, Hoechst33342 dye (5 μg/ml, Invitrogen, Carlsbad, U.S.A.) was added with or without reserpine (50 μM, Sigma, St. Louis, U.S.A.) as a blocking reagent. The cells were further incubated at 37° C. for 2 hours under frequently gentle vortex to ensure uniform staining, and then washed with PBS. PI staining (20 ng/ml) was used to determine the live/dead cells. In order to set up the fluorescence compensation, single staining and non-staining groups were prepared. The cell samples were filtered with nylon mesh (35 μm) to prevent cell aggregation. PI-positive dead cells were primary excluded to avoid false positive signals. Then, the Hoechst blue and red dot plotting was used to determine the side population. A gate of a side population was defined by the diminishing region of two samples groups, i.e. with or without reserpine. The percentages of the side population were further analyzed by Flowjo software (TreeStar, Ashland, U.S.A.).

A549 cells [2] = assay: MTT assay (cell proliferation), A549; type: cell-based; conditions: FIG. 1B
Method: NSCLC cell lines A549, NCI-H460, NCI-H520 and normal lung cell line MRCS were obtained from Bioresource Collection and Research Center (BCRC, Taiwan). A549 cell line was cultured with F12K medium (21127, GIBCO, Carlsbad, U.S.A.). Both NCI-H460 and NCI-H520 cell lines were cultured with RPMI1640 medium (23400, GIBCO, Carlsbad, U.S.A.). MRCS cell line was cultured with MEM medium (41500, GIBCO, Carlsbad, U.S.A.). All media mentioned above contained 10% FBS (10437, GIBCO, Carlsbad, U.S.A.). All cultures were maintained in an incubator (Thermo forma 370, Waltham, U.S.A.) with 5% CO2 at 37° C.
Cells were seeded at 1×10^4 cells per well in a 24-well plate for 16 hours. After that, a sample such as the wogonin solutions with different concentrations and the extract of S. baicalensis (denoted as “SB”) was added into 24-well plate directly, and cultured at 37° C. for 24, 48, and 72 hours, respectively.
Thiazolyl blue tetrazolium bromide (MTT, m5655, Sigma, St. Louis, U.S.A.) solution was prepared in a concentration of 5.5 mg/ml with phosphate buffered saline (PBS) filtered by 0.22 μm membrane. The MTT solution (50 μl) was added to the wells of 24-well plates with A549, NCI-H460, NCI-H520, and MRCS cell lines cultured after 24, 48, and 72 hours. The plates were incubated at 37° C. for 2 hours and then moved out. The media of the wells were removed. […]

IC50 (A549 cells [2]; Homo sapiens, A549, 48 hours, read-out: half maximal inhibitory concentration (IC50)): ~85 µM
SMILES: COc1c(O)cc(O)c2c(=O)cc(-c3ccccc3)oc12 [wogonin solution, wogonin hydrate]
side population (SP) (A549 cells [1]): significantly diminished
inhibition of A549 cell line (concentration dependence) (A549 cells [2]; A549, 40, 80, 120, and 160 μM, 48 hours): increased as the concentration of the wogonin solution increases
